Test results: PubChem BioAssay (NCI)
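1) Cells in 96-well plates. 2) Compound, 48 h, 5 concentrations. 3) Linear interpolation between surrounding doses. 4) Unreached endpoint = highest concentration. Abbreviation: GI50, concentration required for 50% inhibition of growth. TGI denotes the concentration required for complete inhibition of growth.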

Columns and labels:
Experiment in all cases: NCI anticancer screen, dose series, 48 h
[1] = tested on: NCI-H460 lung
[2] = tested on: BT-549 breast
[3] = tested on: SK-MEL-5 melanoma
[4] = tested on: A498 renal
[5] = tested on: CCRF-CEM leukemia
[6] = tested on: KM12 colon
[7] = tested on: COLO 205 colon
[8] = tested on: OVCAR-8 ovarian
[9] = tested on: NCI-H522 lung
[10] = tested on: CAKI-1 renal
[11] = tested on: TK-10 renal
[12] = tested on: SF-268 CNS
[13] = tested on: NCI/ADR-RES ovarian
[14] = tested on: M14 melanoma
[15] = tested on: SF-295 CNS
[16] = tested on: SK-OV-3 ovarian
[17] = tested on: NCI-H23 lung
[18] = tested on: HOP-62 NSCLC
[19] = tested on: SNB-19 CNS
[20] = tested on: DU-145 prostate
[21] = tested on: OVCAR-4 ovarian
[22] = tested on: MALME-3M melanoma
[23] = tested on: EKVX NSCLC
[24] = tested on: ACHN renal
[25] = tested on: U251 CNS
[26] = tested on: HT29 colon
[27] = tested on: UO-31 renal
[28] = tested on: PC-3 prostate
[29] = tested on: SF-539 CNS
[30] = tested on: MCF7 breast
[31] = tested on: MOLT-4 leukemia
[32] = tested on: UACC-257 melanoma
[33] = tested on: 786-0 renal
[34] = tested on: SR leukemia
[35] = tested on: HS 578T breast
[36] = tested on: OVCAR-5 ovarian
[37] = tested on: HL-60(TB) leukemia
[38] = tested on: T-47D breast
[39] = tested on: A549 NSCLC
[40] = tested on: MDA-MB-231 breast
[41] = tested on: IGROV1 ovarian
[42] = tested on: HCC-2998 colon
[43] = tested on: SK-MEL-2 melanoma
[44] = tested on: RXF 393 renal
[45] = tested on: SNB-75 CNS
[46] = tested on: K-562 leukemia
[47] = tested on: NCI-H226 lung
[48] = tested on: HOP-92 NSCLC
[49] = tested on: SN12C renal
[50] = tested on: OVCAR-3 ovarian
[51] = tested on: HCT-15 colon
[52] = tested on: HCT-116 colon
[53] = tested on: LOX IMVI melanoma
[54] = tested on: SK-MEL-28 melanoma
[55] = tested on: RPMI-8226 leukemia
[56] = tested on: MDA-MB-435
[57] = tested on: UACC-62 melanoma
[58] = tested on: SW-620 colon

## Cc1cc(Cl)ccc1Nc1nc(C(F)(F)F)ccc1C(=O)N/N=C/c1cccc(O)c1
[1]
  GI50: 3.57 µM
  TGI: 12.8 µM
[2]
  GI50: 0.861 µM
  TGI: 4.24 µM
[3]
  GI50: 3.35 µM
  TGI: 12.6 µM
[4]
  GI50: 4.23 µM
  TGI: 18.1 µM
[5]
  GI50: 0.449 µM
  TGI: 2.41 µM
[6]
  GI50: 2.56 µM
  TGI: 11.9 µM
[7]
  GI50: 1.17 µM
  TGI: 9.55 µM
[8]
  GI50: 1.68 µM
  TGI: 15.3 µM
[9]
  GI50: 8.28 µM
  TGI: > 41 µM
[10]
  GI50: 0.202 µM
  TGI: 5.98 µM
[11]
  GI50: 2.45 µM
  TGI: 12.3 µM
[12]
  GI50: 1.6 µM
  TGI: 12.2 µM
[13]
  GI50: 4.78 µM
  TGI: 17.6 µM
[14]
  GI50: 4.53 µM
  TGI: 17.3 µM
[15]
  GI50: 0.159 µM
  TGI: 1.1 µM
[16]
  GI50: 1.23 µM
  TGI: 10.6 µM
[17]
  GI50: 6.66 µM
  TGI: 20.1 µM
[18]
  GI50: 7.22 µM
  TGI: 20.7 µM
[19]
  GI50: 2.37 µM
  TGI: 11.9 µM
[20]
  GI50: 3.66 µM
  TGI: 15.2 µM
[21]
  GI50: 1.13 µM
  TGI: 14.6 µM
[22]
  GI50: 1.75 µM
  TGI: 8.8 µM
[23]
  GI50: 0.814 µM
  TGI: 7.19 µM
[24]
  GI50: 4.19 µM
  TGI: > 31.8 µM
[25]
  GI50: 4.51 µM
  TGI: 19.8 µM
[26]
  GI50: 5.03 µM
  TGI: 16.9 µM
[27]
  GI50: 4.98 µM
  TGI: 29 µM
[28]
  GI50: 2.96 µM
  TGI: 12.9 µM
[29]
  GI50: 4.38 µM
  TGI: 15.8 µM
[30]
  GI50: 2.21 µM
  TGI: 12.7 µM
[31]
  GI50: 1.01 µM
  TGI: 3.27 µM
[32]
  GI50: 11.5 µM
  TGI: 38.2 µM
[33]
  GI50: 4.01 µM
  TGI: 13.3 µM
[34]
  GI50: 0.836 µM
  TGI: 4.49 µM
[35]
  GI50: 2.11 µM
  TGI: 11.5 µM
[36]
  GI50: 5.96 µM
  TGI: 25 µM
[37]
  GI50: 2.11 µM
  TGI: 4.97 µM
[38]
  GI50: 0.112 µM
  TGI: 3.13 µM
[39]
  GI50: 8.15 µM
  TGI: 25.5 µM
[40]
  GI50: 4.77 µM
  TGI: 35.4 µM
[41]
  GI50: 3.85 µM
  TGI: 23.4 µM
[42]
  GI50: 3.13 µM
  TGI: 13.8 µM
[43]
  GI50: 2.09 µM
  TGI: 12.7 µM
[44]
  GI50: 0.194 µM
  TGI: 11.3 µM
[45]
  GI50: 2.07 µM
  TGI: 13.8 µM
[46]
  GI50: 1.99 µM
  TGI: 7.1 µM
[47]
  GI50: 3.74 µM
  TGI: 20.1 µM
[48]
  GI50: 3.36 µM
  TGI: 13.9 µM
[49]
  GI50: 6.77 µM
  TGI: 23.8 µM
[50]
  GI50: 1.48 µM
  TGI: 12.7 µM
[51]
  GI50: 2.51 µM
  TGI: 16 µM
[52]
  GI50: 4.42 µM
  TGI: 16.5 µM
[53]
  GI50: 3.18 µM
  TGI: 13.6 µM
[54]
  GI50: 3.65 µM
  TGI: 16.8 µM
[55]
  GI50: 2.51 µM
  TGI: 9.68 µM
[56]
  GI50: 2.17 µM
  TGI: 13.7 µM
[57]
  GI50: 5.88 µM
  TGI: 19.5 µM
[58]
  GI50: 3.39 µM
  TGI: 14.9 µM
